Consider four compounds from US6410594B1, “Substituted cyclopentane compounds useful as neuraminidase inhibitors” (Biocryst Pharmaceuticals, Inc., priority 1996, dated 2002).

Series [1] has as its target H1N9 Influenza Neuraminidase (Influenza A virus, UniProt P03472). Put plainly: biochemical. Further details: species or system influenza virus (H1N9 strain). To be noted: 10 min at 37° C.; read-out: Inhibition of H1N9 Influenza Neuraminidase IC50.

Chain of H1N9 Influenza Neuraminidase (P03472 83-470 limits assumed): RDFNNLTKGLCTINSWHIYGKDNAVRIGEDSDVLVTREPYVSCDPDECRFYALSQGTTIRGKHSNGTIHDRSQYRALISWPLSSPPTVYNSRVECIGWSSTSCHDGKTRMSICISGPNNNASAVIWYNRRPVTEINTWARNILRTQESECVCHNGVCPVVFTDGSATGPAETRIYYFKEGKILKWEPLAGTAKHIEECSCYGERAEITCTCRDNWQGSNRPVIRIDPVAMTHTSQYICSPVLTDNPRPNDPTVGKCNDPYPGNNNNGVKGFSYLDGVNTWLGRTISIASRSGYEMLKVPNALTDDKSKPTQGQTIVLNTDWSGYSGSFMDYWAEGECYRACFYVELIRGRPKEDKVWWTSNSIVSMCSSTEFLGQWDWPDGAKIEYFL

As to `CC(=O)NC(CO)[C@H]1CC(C(=O)O)C[C@@H]1NC(=N)N` (single isomer, unassigned; isomer a) [Example 6, 4β-{[(Amino)(imino)methyl]amino}-3α-[(2-hydroxy-1-methylcarbonylamino)ethyl]-1-cyclo-pentancarboxylic acid (isomer A at C-6)], the melting point lay in the range of 121 to 122 °C. Besides, the IC50 in series [1] stood at 90 µM.
Taken in the same sequence, the figures for `CON(C)C(=O)C(NC(C)=O)[C@H]1C[C@](O)(C(=O)O)C[C@@H]1NC(=N)N` (stereo partly drawn) [Example 19, c-3-{[(Amino)(imino)methyl]amino}-t-1-hydroxy-t-4{(methylcarbonylamino){[(methyl)-(methoxy)amino]carbonyl}methyl}cyclopentan-r-carboxylic acid trifluoroacetic acid (1:1)] were 160 to 216 °C and 16 µM.
In the case of `CON(C)CCC(=O)C(NC(C)=O)[C@H]1CC(C(=O)O)C[C@@H]1NC(=N)N` (stereo partly drawn) [Example 20], the IC50 in series [1] came to 8 µM.
Still for that read-out and setting: for `CCCN(CCC)C(=O)C(NC(C)=O)[C@H]1C[C@@](O)(C(=O)O)C[C@@H]1N=C(N)N` (stereo partly drawn) [Example 23, t-3-{[(Amino)(imino)methyl]amino}-c-4-[(di-n-propylaminocarbonyl)(methylcarbonylamino)-methyl]-t-hydroxycyclpentan-r-carboxylic acid trifluoroacetic acid (4:5)] the value was 0.47 µM.

The term IC50 denotes the point on the concentration scale where inhibition reaches its midpoint. One may read the melting point as the temperature of the solid-liquid transition.
